Data reported in patent US7405303B2, “Substituted quinoline compounds for use as selective estrogen receptor modulator” (SmithKline Beecham Corporation, priority 2004, dated 2008).
Like-named read-outs stand apart in the source and are kept apart here.

Columns and labels:
[1] = molecular target: T1, GST-hERβ (ligand binding domain) (Homo sapiens, UniProt Q92731); experiment: SPA competition binding assay, ERβ; conditions: for Avg. ER β pKi: SPA competition binding vs 1 nM [3H]estradiol, apparent Ki, n = 2
T1 construct: made in house; host or cells: E. coli BL21 (DE3)pLYS S
Protocol: The ligand binding domain of both ERα and ERβ were sub-cloned into pGEX-2T vector which had been modified to contain KpnI and BamHI restriction sites in the multiple cloning region. GST-hERα and GST-hERβ proteins were made by transforming BL21 (DE3)pLYS S competent cells with the appropriate expression plasmid. […] The cells were collected by centrifugation and resuspended in lysis buffer (50 mM Tris pH 7.9; 250 mM KCl; 1% Triton X-100; 10 mM DTT; 1 mM PMSF). […] The supernatant was retained and glycerol was added to a final concentration of 10%. The protein content of the supernatant was quantitated using the BioRad Protein Assay Reagent. The protein was then stored at −80° C. until used in the binding assay.
(§1) Polylysine coated Yttrium Silicate SPA beads (Amersham #RPNQ 0010) are resuspended in assay buffer [10 mM potassium phosphate buffer pH 7.0 containing 2 mM EDTA, 50 mM NaCl, 1 mM DTT, 2 mM CHAPS, 10% glycerol] to a concentration of 1 g/60 ml. […] [2,4,6,7,16,17-3H(N)]-Estradiol is added as a 30 ul aliquot to give a final assay concentration of 1 nM. […] The plates are shaken vigorously for two hours then counted on a Packard TopCount using the protocol for counting tritium yttrium silicate SPA beads. Data analysis was done by standard methods. % Bound was calculated for each concentration of each test compound using the equation % Bound=100*((Test−NS)/(T−NS)). % Bound was plotted vs concentration and curve fitting was accomplished using non-linear regression.

[2] = molecular target: T2, GST-hERα (ligand binding domain) (Homo sapiens, UniProt P03372); experiment: SPA competition binding assay, ERα; conditions: for Avg. ER α pKi: SPA competition binding vs 1 nM [3H]estradiol, apparent Ki, n = 2; for Ki: read-out: Avg. ER α pKi (converted)
T2 construct: made in house; host or cells: E. coli BL21 (DE3)pLYS S
T2 sequence (P03372 311-547 limits assumed): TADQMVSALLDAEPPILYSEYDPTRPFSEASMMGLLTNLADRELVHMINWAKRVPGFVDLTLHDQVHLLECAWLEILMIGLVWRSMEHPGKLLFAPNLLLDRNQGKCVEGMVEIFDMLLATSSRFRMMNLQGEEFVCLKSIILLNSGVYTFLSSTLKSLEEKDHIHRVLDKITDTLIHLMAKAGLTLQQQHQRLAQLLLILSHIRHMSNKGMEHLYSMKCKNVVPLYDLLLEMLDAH
Protocol: The ligand binding domain of both ERα and ERβ were sub-cloned into pGEX-2T vector which had been modified to contain KpnI and BamHI restriction sites in the multiple cloning region. GST-hERα and GST-hERβ proteins were made by transforming BL21 (DE3)pLYS S competent cells with the appropriate expression plasmid. […] The cells were collected by centrifugation and resuspended in lysis buffer (50 mM Tris pH 7.9; 250 mM KCl; 1% Triton X-100; 10 mM DTT; 1 mM PMSF). The lysate was then placed on dry ice until completely frozen The frozen lysate was thawed and centrifuged 20 min at 4° C. at 80K rpm in a TLA 100.2 rotor in a Beckman TL-100 ultracentrifuge. The supernatant was retained and glycerol was added to a final concentration of 10%. The protein content of the supernatant was quantitated using the BioRad Protein Assay Reagent. The protein was then stored at −80° C. until used in the binding assay.
as §1, with “ml. 30 ul (0.5 mg) of the SPA beads are then added to each well of a Packard OptiPlate (Packard 6005190, Packard Instruments, Meriden, Conn.).” for “ml.”

T1 sequence (Q92731 264-498 limits assumed): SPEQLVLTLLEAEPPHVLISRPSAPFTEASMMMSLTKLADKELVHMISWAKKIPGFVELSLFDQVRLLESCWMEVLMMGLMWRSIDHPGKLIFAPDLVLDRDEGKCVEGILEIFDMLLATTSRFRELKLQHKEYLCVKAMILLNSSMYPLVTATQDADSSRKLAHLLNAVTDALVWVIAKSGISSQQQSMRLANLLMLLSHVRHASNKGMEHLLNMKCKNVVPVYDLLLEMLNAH

| Compound | Avg. ER β pKi [1] | Avg. ER α pKi [2] | Ki [1] | Ki [2] | Ki ([1]; read-out: Avg. ER β pKi (converted)) |
| --- | --- | --- | --- | --- | --- |
| 4-[(7-Hydroxy-2-ethyl-3-(3-trifluoromethylphenyl)-4-quinolinyl)oxyphenyl]-2-propenoic acid [Example 8] | 6.57 | 7.05 |  |  |  |
| 4-[(7-Hydroxy-2-ethyl-3-(3-trifluoromethylphenyl]-4-quinolinyl)oxyphenyl]-2-propeno-N-isopropylamide [Example 7] | 7.26 | 7.51 |  |  |  |
| 4-[(7-Hydroxy-2-ethyl-3-phenyl-4-quinolinyl)oxyphenyl]-2-propeno-N,N-dimethylamide [Example 4] | 7.74 | 7.95 |  |  |  |
| 4-[(7-Hydroxy-2-ethyl-3-phenyl-4-quinolinyl)oxyphenyl]-2-propeno-N-isopropylamide [Example 3] | 7.76 | 8.01 |  |  |  |
| 4-[(7-Hydroxy-2-ethyl-3-phenyl-4-quinolinyl)oxyphenyl]-2-propeno-N-piperidineamide [Example 5] | 7.64 | 7.55 |  |  |  |
| 4-[(7-Hydroxy-2-ethyl-3-phenyl-4-quinolinyl)oxyphenyl]-2-propenonitrile [Example 6] | 7.50 | 7.59 |  |  |  |
| 4-[(7-Hydroxy-2-phenyl-3-phenyl-4-quinolinyl)oxyphenyl]-2-propenoic acid [Example 9] | 6.17 | 5.53 |  |  |  |
| CCc1nc2cc(O)ccc2c(Oc2ccc(/C=C/C(N)=O)cc2)c1-c1ccccc1 [Example 2, 4-[(7-Hydroxy-2-ethyl-3-phenyl-4-quinolinyl)oxyphenyl]-2-propenoamide] |  |  | 28.2 nM | 14.8 nM |  |
| CCc1nc2cc(O)ccc2c(Oc2cccc(/C=C/C(=O)O)c2)c1-c1ccccc1 [Example 10, 3-[(7-Hydroxy-2-ethyl-3-phenyl-4-quinolinyl)oxyphenyl]-2-propenoic acid] |  |  |  | 1550 nM |  |
| CCc1nc2cc(O)ccc2c(Sc2ccc(/C=C/C(N)=O)cc2)c1-c1ccccc1 [Example 11, 4-[(7-Hydroxy-2-ethyl-3-phenyl-4-quinolinyl)thiophenyl]-2-propenoamide] |  |  |  | 3160 nM | 1820 nM |
